Patent US12492403B2, “Aptamers and the use thereof in the treatment of cancer” (FUNDACIÓN PARA LA INVESTIGACIÓN BIOMÉDICA DEL HOSPITAL …, priority 2018, dated 2025)

Assays:
MCF7 cells = assay: Colony formation assay; assay type: cell-based, human; conditions: MCF7, 150 nM, colonies quantified 9-12 days after seeding
Procedure: (§1) FIGS. 12A & 12B. Effect of apMNKQ2 on cell clonogenicity. MCF7, MDA-MB-231, and MDA-MB-468 cells were seeded in 24-well plates at a density of 3×10^4 cells/well and transfected at 24 hours with apMNKQ2 at the previously established working concentrations (FIG. 12A). After 24 hours, the cells were collected, counted, and seeded in 6-well plates with 1000 cells/well for MCF7 and MDA-MB-231 and with 5000 cells/well for MDA-MB-468 (FIG. 12B). The boxes represent the mean±the maximum and minimum of 4-5 independent experiments (*p<0.05 and **p<0.01 with respect to the control aptamer AT).
(§2) To perform these assays, 3×10^4 cells/well were seeded in 24-well plates with every 2 wells being considered an experimental point. At 16-24 hours, the cells were transfected with apMNKQ2 or the control aptamer. At 16-24 hours post-transfection, the cells of every two wells were pooled, resuspended in the corresponding medium, counted, and after performing the suitable dilutions, reseeded 1×10^3 or 5×10^3 cells/well in duplicate in 6-well plates. These plates were left in the incubator with a moisture-saturated environment at 37° C. and 5% CO2/[…] for 8-9 days. After this time, the colonies were fixed with methanol (Merck, Germany) for 10 minutes, stained with 0.02% giemsa (Sigma-Aldrich, USA) for 30 minutes, washed with water to eliminate the remaining dye, and left to dry at room temperature. To count the colonies, a colony counter pen (Heathrow Scientific® LLC, United Kingdom) and a magnifying glass (1.75×) (Bel-Art Scienceware, USA) were used. The results were expressed in number of colonies and normalized in percentage with respect to the control.
(§3) For these assays, 1000 cells/well in 6-well plates had previously been established for the MCF7 and MDA-MB-231 lines, however, the PE of the MDA-MB-468 cells was lower (11.5±5.3%), so 5000 cells were seeded. The cells were transfected with apMNKQ2 and the control AT, and collected and reseeded at 24 hours to perform the colony formation assay. The colonies were quantified 9-12 days after seeding. […]

MDA-MB-231 cells = assay: Colony formation assay; assay type: cell-based, human; conditions: MDA-MB-231, 400 nM, colonies quantified 9-12 days after seeding
Procedure: as §1, §2, §3

MDA-MB-468 cells = assay: Colony formation assay; assay type: cell-based, human; conditions: MDA-MB-468, 50 nM, colonies quantified 9-12 days after seeding
Procedure: as §1, §2, §3

4T1 cells [1] = assay: Transwell migration assay in 4T1 cells; assay type: cell-based, mouse; conditions: 500 nM, 24 hours migration
Procedure: (§4) FIG. 21A-21E. In vivo efficacy of apMNKQ2 in a mouse metastatic model with an orthotopic xenograft of 4T1 cells. (A) Effect of apMNKQ2 aptamer on the proliferation of 4T1 cells (mouse breast tumor line). 4T1 cells were seeded in p96 at a density of 1.5×10^3 cells/well. […] The graph (FIG. 21A) represents the means±SEM of 3 independent experiments. (B) Effect of apMNKQ2 aptamer on migration and invasion of 4T1 cells. Cells were seeded in p6 at a density of 2×10^5 cells/well and transfected with 500 nM apMNKQ2 at 24 hours. […] At 24 hours (migration) or 48 h (invasion), the transwell membranes were stained with Hoechst and the cells that had passed through the fluorescence microscopy were quantified. […] The number of metastases is analyzed by the reverse staining method (with Chinese ink) and the metastases grouped according to their size in four groups (0.5, 1, 2 and >2). […]
(§5) Cell migration and invasion assays were performed using transwell (Corning, USA). […] After that time, they were collected, counted, and reseeded 4×10^4 cells in 300 μl of a serum-free complete medium inside the transwell (migration) or a transwell on which a layer of 100 μL of Matrigel (Corning, USA) (invasion) had previously been polymerized. […] Finally, two washes in PBS were performed, and 5 photographs of each membrane of the transwell were taken using a fluorescence microscope (Olympus IX70). […]

4T1 cells [2] = assay: Transwell invasion assay in 4T1 cells; assay type: cell-based, mouse; conditions: 500 nM, 48 h invasion
Procedure: as §4, §5

[3] = tested on: orthotopic xenograft of 4T1 cells; assay: In vivo efficacy in metastatic orthotopic 4T1 mouse model; parameters: species or system BALBc mice; conditions: 3.6 mg/kg intravenously three times a week
Procedure: FIG. 21A-21E. In vivo efficacy of apMNKQ2 in a mouse metastatic model with an orthotopic xenograft of 4T1 cells. (A) Effect of apMNKQ2 aptamer on the proliferation of 4T1 cells (mouse breast tumor line). 4T1 cells were seeded in p96 at a density of 1.5×10^3 cells/well. […] The graph (FIG. 21A) represents the means±SEM of 3 independent experiments. (B) Effect of apMNKQ2 aptamer on migration and invasion of 4T1 cells. Cells were seeded in p6 at a density of 2×10^5 cells/well and transfected with 500 nM apMNKQ2 at 24 hours. At 6 hours they were deprived of serum, and after 24 hours they were collected and re-seeded (4×10^4 cells/well) in a transwell […]. At 24 hours (migration) or 48 h (invasion), the transwell membranes were stained with Hoechst and the cells that had passed through the fluorescence microscopy were quantified. Values (FIG. 21B) represent the mean±SEM of 2-3 independent experiments. In vivo efficacy of apMNKQ2 in a mouse metastatic model with an orthotopic xenograft of 4T1 cells. (C) Evolution of mouse weight on the days of treatment with apMNKQ2 (FIG. 21C). (D) Relative tumor volume (RTV) throughout the days of treatment (FIG. 21D). (E) Number of lung metastases (FIG. 21E). The number of metastases is analyzed by the reverse staining method (with Chinese ink) and the metastases grouped according to their size in four groups (0.5, 1, 2 and >2). The stacked bars correspond to each group and represent the mean±SEM of 8-9 animals (*p<0.05 with respect to the control group).
The anti-tumour activity and the effect on and spontaneous metastasis of aptamers in BALBc mice bearing ortothopically […] 4T1 breast tumours. […] As monitoring parameters, the tumor volume, assuming they are ellipsoids, and the weight of the animals were measured. […]
To study the ability of apMNKQ2 to reduce metastasis in vivo, an orthotopic xenograft model with a murine tumor line of triple negative breast cancer, 4T1, was used. […] First, the effect of apMNKQ2 on 4T1 cells in vitro was analyzed. […]

Substance: 5′TGGGGTGGGCGGGCGGGGGTGGGGGTGGT-3′ (DNA, backbone and methylation of C not given here; further chemistry not fully specified) [apMNKQ2]
- inhibition in colony formation with respect to control aptamer AT (MCF7 cells): statistically significant
- inhibition in colony formation with respect to control aptamer AT (MDA-MB-231 cells): statistically significant
- inhibition in colony formation with respect to control aptamer AT (MDA-MB-468 cells): statistically significant
- migration of 4T1 cells (4T1 cells [1]): significantly decrease
- invasion of 4T1 cells (4T1 cells [2]): significantly decrease
- size of the tumors (relative tumor volume) ([3]; 18 days): does not produce changes
- weight of the mice ([3]; 18 days): does not produce changes
- number of lung metastasis ([3]; statistically significant for metastasis of 2 mm): decreased
